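All cell lines were grown in 96-well plates and treated with compound for 48 hours. GI50 = concentration required for 50% inhibition of growth.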 Activity calls are given as the source filed them. No stated cut-off is given here; in the data, active = GI50 up to about 1.1 µM and inactive = higher. Residues, ends and D or L forms follow the SMILES beside them. Groups on a side chain read outwards from the residue. *: point of attachment. Cbz = O=C(OCc1ccccc1)*; Boc = CC(C)(C)OC(=O)*
Assays:
Assay in all cases: NCI tumour cell line growth inhibition, 48 h
HL-60 = tested on: HL-60
NCI-H23 = tested on: NCI-H23
OVCAR-8 = tested on: OVCAR-8
UO-31 = tested on: UO-31
HCC 2998 = tested on: HCC 2998
RPMI-8226 = tested on: RPMI-8226
OVCAR-4 = tested on: OVCAR-4
MDA-MB-435 = tested on: MDA-MB-435
DU-145 = tested on: DU-145
SF-295 = tested on: SF-295
SK-OV-3 = tested on: SK-OV-3
TK-10 = tested on: TK-10
IGROV-1 = tested on: IGROV-1
EKVX = tested on: EKVX
MOLT-4 = tested on: MOLT-4
HOP-92 = tested on: HOP-92
UACC-62 = tested on: UACC-62
LOX IMVI = tested on: LOX IMVI
SK-MEL-2 = tested on: SK-MEL-2
PC-3 = tested on: PC-3

Measured: GI50

O=CNNC(=O)Nc1cccc2ccccc12
inactive: HL-60 > 100 µM | NCI-H23 > 100 µM | OVCAR-8 > 100 µM | UO-31 > 100 µM | HCC 2998 > 100 µM | RPMI-8226 > 100 µM | OVCAR-4 > 100 µM | MDA-MB-435 > 100 µM | DU-145 > 100 µM | SF-295 > 100 µM | SK-OV-3 > 100 µM | TK-10 > 100 µM | IGROV-1 > 100 µM | EKVX > 100 µM | MOLT-4 > 100 µM | HOP-92 > 10 µM | UACC-62 > 100 µM

COC(=O)C1=COc2c(n(C)c3ccccc23)-c2ccccc21
inactive: HL-60 > 100 µM | NCI-H23 > 100 µM | OVCAR-8 > 100 µM | UO-31 > 100 µM | RPMI-8226 97.3 µM | LOX IMVI > 100 µM | MDA-MB-435 > 100 µM | DU-145 > 100 µM | SF-295 > 100 µM | SK-OV-3 > 100 µM | SK-MEL-2 > 100 µM | TK-10 > 100 µM | IGROV-1 20.2 µM | PC-3 > 100 µM | EKVX > 100 µM | MOLT-4 > 100 µM | UACC-62 > 100 µM

COc1nc(O)nc2c1C(c1ccc([N+](=O)[O-])cc1)c1c(OC)nc(O)nc1O2
inactive: HL-60 > 100 µM | NCI-H23 > 100 µM | OVCAR-8 > 100 µM | UO-31 > 100 µM | RPMI-8226 > 100 µM | OVCAR-4 > 100 µM | MDA-MB-435 > 100 µM | DU-145 > 100 µM | SF-295 > 100 µM | SK-OV-3 > 100 µM | SK-MEL-2 > 100 µM | TK-10 > 100 µM | IGROV-1 > 100 µM | PC-3 > 100 µM | EKVX > 100 µM | MOLT-4 > 100 µM | UACC-62 > 100 µM

CC(C)(C)OC(=O)NC(CCCCNC(=O)CNC(=O)OCc1ccccc1)C(=O)NC(CCCCNC(=O)CNC(=O)OCc1ccccc1)C(=O)NC(CCCCNC(=O)CNC(=O)OCc1ccccc1)C(=O)NC(CCCCNC(=O)CNC(=O)OCc1ccccc1)C(=O)O (stereo unspecified) (Boc-K([Gly-Cbz])K([Gly-Cbz])K([Gly-Cbz])K([Gly-Cbz])-OH; configuration not given here)
inactive: HL-60 > 100 µM | NCI-H23 > 100 µM | OVCAR-8 > 100 µM | UO-31 > 100 µM | HCC 2998 > 100 µM | RPMI-8226 > 100 µM | OVCAR-4 > 10 µM | LOX IMVI > 100 µM | MDA-MB-435 > 10 µM | DU-145 > 100 µM | SK-MEL-2 > 100 µM | TK-10 > 100 µM | IGROV-1 > 100 µM | PC-3 > 100 µM | MOLT-4 > 100 µM | UACC-62 > 100 µM

O=C1CCCC/C1=C1\C(=O)Nc2cc(F)ccc21
inactive: HL-60 > 100 µM | NCI-H23 > 100 µM | OVCAR-8 > 100 µM | UO-31 > 100 µM | HCC 2998 > 100 µM | RPMI-8226 > 100 µM | OVCAR-4 > 100 µM | LOX IMVI > 100 µM | SF-295 > 100 µM | SK-OV-3 > 100 µM | SK-MEL-2 > 100 µM | TK-10 > 100 µM | IGROV-1 > 100 µM | EKVX > 100 µM | MOLT-4 > 100 µM | HOP-92 > 100 µM | UACC-62 > 100 µM

O=CC(NC(=O)N(CCCl)N=O)C(O)C(O)C(O)CO (stereo unspecified)
inactive: HL-60 287 µM | NCI-H23 993 µM | OVCAR-8 1160 µM | UO-31 > 1200 µM | HCC 2998 > 1030 µM | RPMI-8226 851 µM | OVCAR-4 > 449 µM | MDA-MB-435 774 µM | DU-145 553 µM | SF-295 81.7 µM | SK-OV-3 > 1160 µM | SK-MEL-2 718 µM | TK-10 > 1250 µM | IGROV-1 1000 µM | PC-3 > 1250 µM | EKVX > 1250 µM | MOLT-4 159 µM | UACC-62 47 µM

Cc1nc2c(=S)n(C)ncc2[nH]1
inactive: HL-60 > 100 µM | NCI-H23 > 100 µM | OVCAR-8 > 100 µM | UO-31 > 100 µM | HCC 2998 > 100 µM | RPMI-8226 > 100 µM | OVCAR-4 > 100 µM | LOX IMVI > 100 µM | MDA-MB-435 > 100 µM | SF-295 > 100 µM | SK-OV-3 > 100 µM | SK-MEL-2 > 100 µM | TK-10 > 100 µM | IGROV-1 > 100 µM | PC-3 > 100 µM | EKVX > 100 µM | MOLT-4 > 100 µM | UACC-62 > 100 µM

CC(CC(=O)Nc1ccc(NC(=O)CC(C)/N=N\C(N)=O)cc1)/N=N\C(N)=O (stereo unspecified)
inactive: HL-60 > 100 µM | NCI-H23 > 100 µM | OVCAR-8 > 100 µM | UO-31 > 100 µM | HCC 2998 > 100 µM | RPMI-8226 > 100 µM | OVCAR-4 > 100 µM | LOX IMVI 24.7 µM | SF-295 > 100 µM | SK-OV-3 > 100 µM | SK-MEL-2 > 100 µM | TK-10 > 100 µM | IGROV-1 > 100 µM | EKVX > 100 µM | MOLT-4 > 100 µM | HOP-92 > 100 µM | UACC-62 > 100 µM

CCCSS[C@H]1NC(=O)[C@H]1NC(=O)COc1ccccc1
inactive: HL-60 2.6 µM | NCI-H23 17.7 µM | OVCAR-8 13.9 µM | UO-31 32.5 µM | HCC 2998 15.5 µM | RPMI-8226 14 µM | OVCAR-4 17.3 µM | LOX IMVI 16.4 µM | SF-295 41.9 µM | SK-OV-3 > 100 µM | SK-MEL-2 17.9 µM | TK-10 27.9 µM | IGROV-1 21.1 µM | EKVX 20.6 µM | MOLT-4 1.28 µM | HOP-92 10.4 µM | UACC-62 17.9 µM

CC1CCC(C(C)C)C(OC(=O)NCn2cc(-c3ccccc3)nn2)C1 (stereo unspecified)
inactive: HL-60 > 100 µM | NCI-H23 > 100 µM | OVCAR-8 75.5 µM | HCC 2998 85.1 µM | RPMI-8226 > 100 µM | OVCAR-4 57.8 µM | LOX IMVI > 100 µM | DU-145 > 100 µM | SF-295 > 100 µM | SK-MEL-2 > 100 µM | TK-10 75.5 µM | IGROV-1 > 100 µM | PC-3 > 100 µM | EKVX > 100 µM | HOP-92 > 100 µM

COc1ccc(CN2CC(C)(C)C2=O)c(OC)c1
inactive: HL-60 > 100 µM | NCI-H23 > 100 µM | OVCAR-8 > 100 µM | UO-31 > 100 µM | HCC 2998 > 100 µM | RPMI-8226 > 100 µM | OVCAR-4 > 100 µM | LOX IMVI > 100 µM | SF-295 > 100 µM | SK-OV-3 > 100 µM | SK-MEL-2 > 100 µM | TK-10 > 100 µM | IGROV-1 > 100 µM | EKVX > 100 µM | MOLT-4 > 100 µM | HOP-92 > 100 µM | UACC-62 > 100 µM

— ChEMBL document CHEMBL1201862, “PubChem BioAssay data set” (2004)
